Assay results: patent publication US5414008A, “Imidazolyl-substituted phenylpropionic and cinnamic acid derivatives” (Bayer Aktiengesellschaft, priority 1992, dated 1995)

Tests used:
angiotensin II receptor = target: T1, angiotensin II receptor (Bos taurus, UniProt P25104); assay: Angiotensin II receptor binding (3H-angiotensin II) in membrane fractions of bovine adrenal gland cortex; conditions: bovine adrenal gland cortex membranes, 3H-angiotensin II 3-5 nM, 60 min, room temperature
T1 construct: Bovine adrenal gland cortices (AGC), which have been freshly removed and carefully freed from gland medulla; from tissue; host or cells: bovine adrenal gland cortex, partially purified membrane fractions
T1 sequence (P25104 1-359): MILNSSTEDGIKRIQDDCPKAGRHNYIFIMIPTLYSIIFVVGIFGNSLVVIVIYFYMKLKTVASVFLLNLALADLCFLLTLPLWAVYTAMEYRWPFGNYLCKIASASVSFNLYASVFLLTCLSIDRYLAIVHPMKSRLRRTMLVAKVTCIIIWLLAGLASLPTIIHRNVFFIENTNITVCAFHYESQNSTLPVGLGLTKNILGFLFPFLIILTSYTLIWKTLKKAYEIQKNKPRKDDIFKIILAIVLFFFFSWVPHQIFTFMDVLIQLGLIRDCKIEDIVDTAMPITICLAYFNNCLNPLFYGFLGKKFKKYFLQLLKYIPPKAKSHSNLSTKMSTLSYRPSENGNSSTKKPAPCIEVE
Procedure: Bovine adrenal gland cortices (AGC), which have been freshly removed and carefully freed from gland medulla, are comminuted in sucrose solution (0.32 M) with the aid of an Ultra-Turrax (Janke & Kunkel, Staufen i.B.) to give a coarse membrane homogenate and partially purified in two centrifugation steps to give membrane fractions. The receptor binding investigations are carried out on partially purified membrane fractions of bovine AGC using radioactive angiotensin II in an assay volume of 0.25 ml, which specifically contains the partially purified membranes (50-80 μg), ^3 H-angiotensin II .(3-5 nM), test buffer solution (50 mMTris, pH 7.2, 5 mM MgCl2) and the substances to be investigated. After an incubation time of 60 min at room temperature, the unbound radioactivity of the samples is separated by means of moistened glass fibre filters (Whatman GF/C) and the bound radioactivity is measured […] in a scintillation cocktail after washing the protein with ice-cold buffer solution (50 mM Tris/HCl, pH 7.4, 5% PEG 6000). The analysis of the raw data was carried out using computer programs to give Ki or IC50 values (Ki : IC50 values corrected for the radioactivity used; IC50 values: concentration at which the substance to be investigated causes a 50% inhibition of the specific binding of the radioligand).

smooth muscle cells = assay: Inhibition of the proliferation of smooth muscle cells (3H-thymidine incorporation); assay type: cell-based; conditions: Sus scrofa, 10^-6 M, smooth muscle cells from pig aortas
Procedure: To determine the antiproliferative action of the compounds, smooth muscle cells are used which are obtained from aortas of pigs by the media explant technique [R.Ross, J. Cell. Biol. 50, 172, 1971]. The cells are inoculated into suitable culture dishes, as a rule 96-hole plates, and cultured in 5% CO2 at 37° C. for 2-3 days in medium 199 containing 7.5% FCS and 7.5% NCS, 2 mmol L-glutamine and 15 mmol HEPES, pH 7.4. The cells are then synchronised by withdrawal of serum for 2-3 days and then stimulated into growth with serum or other factors. Test compounds are simultaneously added. After 16-20 hours, 1 μCi ^3 H-thymidine is added and after a further 4 hours the incorporation of this substance into the TCA-precipitatable DNA of the cells is determined.
To determine the IC50 values, the active compound concentration is calculated which on sequential dilution of the active compound causes half-maximal inhibition of the thymidine incorporation produced by 1% FCS.

[1] = test system: isolated rabbit aorta rings, contraction induced by angiotensin II; assay: Inhibition of vascular contraction induced by angiotensin II (AII) in isolated rabbit aorta rings in vitro; conditions: based on 3rd = submaximal agonist concentration, read-out: IC50 against contractions induced by AII
Procedure: Rabbits of either sex are stunned by a blow to the back of the head and bled out, or in some cases anaesthetized with Nembutal (about 60-80 mg/kg i.v.) and sacrificed by opening the thorax. The thorax aorta is removed, freed from adhering connective tissue, divided into ring segments 1.5 mm wide and individually transferred under an initial loading of about 3.5 g to 10 ml organ baths containing Krebs-Henseleit nutrient solution, which is temperature-controlled at 37° C. and aerated with 95% 02/5 % CO2, of the following composition: 119 mmol/l of NaCl; 2.5mmol/l of CaCl2 ×2H2 O; 1.2 mmol/1 of KH2 PO4; 10mmol/l of glucose; 4.8 mmol/l of KCl; 1.4 mmol/l of MgSO4 ×H2 O and 25 mmol/1 of NaHCO3.
The contractions are detected isometrically by Statham UC2 cells by means of bridge amplifiers (ifd Milheim or DSM Aalen) and digitalised and assessed by means of A/D converters (System 570, Keithley Munich). Agonist dose response curves (DRC) are plotted hourly. With each DRC, 3 or 4 individual concentrations are applied to the baths at a 4 min interval. After the end of the DRC and subsequent washing-out cycles (16 times in each case about 5 sec/min with the abovementioned nutrient solution), a 28-minute rest or incubation phase follows, during which the contractions as a rule reach the staring value again.
The height of the 3rd DRC, in a normal case, is used as a reference variable for the assessment of the test substance to be investigated in further runs, which is applied to the baths in the following DRCs in increasing doses in each case at the start of the incubation period. Each aorta ring is in this case stimulated for the whole day, always with the same agonist.
For the calculation of the IC50 (concentration at which the substance to be investigated causes a 50% inhibition), the effect is in each case based on the 3rd =submaximal agonist concentration.

`CCCCc1nc(Cl)c(CO)n1Cc1ccc(C(CC(=O)O)c2ccccc2)cc1` (centres unmarked) [Example 36] showed a Ki (angiotensin II receptor) of 150 nM.
`CCCCc1nc(Cl)c(C=O)n1Cc1ccc(/C(=C/C(=O)NS(=O)(=O)c2ccc(C)cc2)c2ccccc2)cc1` [Example 39] showed an inhibition at 1 µM (smooth muscle cells) of 59%.
`CCCCc1nc(Cl)c(C=O)n1Cc1ccc(/C(=C\C(=O)NS(=O)(=O)c2ccc(C)cc2)c2ccccc2)cc1` [Example 40] showed an inhibition at 1 µM (smooth muscle cells) of 57%.
`CCCCc1nc(Cl)c(CO)n1Cc1ccc(C(=CC(=O)NC(CO)c2ccccc2)c2ccccc2)cc1` (centres unmarked) [Example 20] gave an IC50 [1] of 360 nM.
`CCCCc1nc(Cl)c(C=O)n1Cc1ccc(C(CC(=O)O)C2CCCC2)cc1` (centres unmarked) [Example 37] gave a Ki (angiotensin II receptor) of 190 nM.
With `CCCCc1nc(Cl)c(C=O)n1Cc1ccc(/C(=C/C(=O)O)c2ccccc2)cc1` [Example 31] the Ki (angiotensin II receptor) was 310 nM and the IC50 [1] was 360 nM.
`CCCCc1nc(Cl)c(CO)n1Cc1ccc(/C(=C\C(=O)O)c2ccccc2)cc1` [Example 30] was tested, and the Ki (angiotensin II receptor) was 340 nM and the IC50 [1] was 580 nM.
In the case of `CCCCc1nc(Cl)c(CO)n1Cc1ccc(C(CC(=O)OC(C)(C)C)c2ccccc2)cc1` (centres unmarked) [Example 18], the inhibition at 1 µM (smooth muscle cells) is reported as 90%.
`CCCCc1nc(Cl)c(C=O)n1Cc1ccc(C(CC(=O)O)c2ccccc2)cc1` (centres unmarked) [Example 35] gave an IC50 [1] of 650 nM.
